The values below come from ChEMBL document CHEMBL4613218, “Synthesis, in vitro and in vivo biological evaluation of novel graveolinine derivatives as potential anti-Alzheimer agents” (Bioorg Med Chem, 2020).

Data set [1] is described as follows: Selectivity index, ratio of IC50 for electric eel AChE to IC50 for equine serum BuChE.
A short description of data set [2]: Cytotoxicity against human HepG2 cells assessed as inhibition of cell viability at 10 uM after 48 hrs by MTT assay relative to control. Format: cell-based. The conditions noted are these: read-out: INH. In general terms: Tetrazolium dyes change colour on reduction, which living cells bring about.
For another data set, the target named is Acetylcholinesterase (Electrophorus electricus, UniProt O42275). The data set can be described thus: Inhibition of electric eel AChE using acetylthiocholine chloride as substrate preincubated for 15 mins followed by substrate addition by Ellman's method.
Acetylcholinesterase, sequence (O42275 whole entry): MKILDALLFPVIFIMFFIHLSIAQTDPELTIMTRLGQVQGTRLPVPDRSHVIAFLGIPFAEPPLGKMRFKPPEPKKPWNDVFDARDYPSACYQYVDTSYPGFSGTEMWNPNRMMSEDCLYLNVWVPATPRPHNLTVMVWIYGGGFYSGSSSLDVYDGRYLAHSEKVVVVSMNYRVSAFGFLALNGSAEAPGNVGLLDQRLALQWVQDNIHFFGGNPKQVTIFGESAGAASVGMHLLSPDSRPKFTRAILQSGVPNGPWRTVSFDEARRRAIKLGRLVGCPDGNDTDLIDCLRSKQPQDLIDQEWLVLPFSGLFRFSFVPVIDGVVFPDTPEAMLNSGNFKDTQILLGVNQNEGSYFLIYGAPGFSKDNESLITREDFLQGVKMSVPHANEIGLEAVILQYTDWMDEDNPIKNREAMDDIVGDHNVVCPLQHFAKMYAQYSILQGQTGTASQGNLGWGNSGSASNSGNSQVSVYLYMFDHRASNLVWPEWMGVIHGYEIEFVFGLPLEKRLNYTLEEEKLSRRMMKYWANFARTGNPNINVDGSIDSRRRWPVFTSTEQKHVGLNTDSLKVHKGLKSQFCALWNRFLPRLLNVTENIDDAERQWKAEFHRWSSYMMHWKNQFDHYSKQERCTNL
Another data set concerns the target Cholinesterase (Equus caballus, UniProt P81908). Kind of data set: Inhibition of equine serum BuChE using butyrylthiocholine chloride as substrate preincubated for 15 mins followed by substrate addition by Ellman's method. On the technique in general: DTNB colorimetry detects thiols as they appear.
A further data set has as its system HepG2. The data set can be described thus: Cytotoxicity against human HepG2 cells assessed as growth inhibition after 48 hrs by MTT assay. It is filed as cell-based. As to conditions: HepG2, 48 h.
Data set [3] can be described thus: Cytotoxicity against rat PC12 cells assessed as inhibition of cell viability at 10 uM after 48 hrs by MTT assay relative to control. As to conditions: read-out: INH. Format: cell-based, PC-12.
Data set [4] deals with Amyloid-beta precursor protein (Homo sapiens) (UniProt P05067). Kind of data set: Inhibition of self-induced human amyloid beta (1 to 42) peptide aggregation at 20 uM measured after 48 hrs by ThT fluorescence assay relative to control.
Amyloid-beta precursor protein (Homo sapiens), sequence (P05067 whole entry): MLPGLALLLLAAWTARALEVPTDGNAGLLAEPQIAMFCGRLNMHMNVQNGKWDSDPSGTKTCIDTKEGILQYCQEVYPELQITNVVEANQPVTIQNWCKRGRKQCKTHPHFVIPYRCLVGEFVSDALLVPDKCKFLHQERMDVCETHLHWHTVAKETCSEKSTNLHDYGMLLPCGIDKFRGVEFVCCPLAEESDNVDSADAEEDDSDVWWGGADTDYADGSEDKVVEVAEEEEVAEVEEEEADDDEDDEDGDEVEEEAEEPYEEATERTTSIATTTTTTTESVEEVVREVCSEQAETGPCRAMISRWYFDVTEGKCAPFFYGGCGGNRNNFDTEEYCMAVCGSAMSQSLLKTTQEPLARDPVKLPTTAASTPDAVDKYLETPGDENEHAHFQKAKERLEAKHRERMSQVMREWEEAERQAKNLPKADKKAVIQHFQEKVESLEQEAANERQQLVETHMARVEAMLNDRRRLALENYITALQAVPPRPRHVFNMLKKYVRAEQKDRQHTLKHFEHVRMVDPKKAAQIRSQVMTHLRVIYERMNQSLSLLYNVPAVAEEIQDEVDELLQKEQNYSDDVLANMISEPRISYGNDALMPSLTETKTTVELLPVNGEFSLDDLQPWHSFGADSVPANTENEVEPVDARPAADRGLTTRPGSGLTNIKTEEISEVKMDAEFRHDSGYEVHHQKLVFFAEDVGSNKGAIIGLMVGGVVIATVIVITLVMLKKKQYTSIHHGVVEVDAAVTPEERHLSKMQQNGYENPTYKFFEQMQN
The test system of a further data set is PC-12. The data set can be described thus: Cytotoxicity against rat PC12 cells assessed as growth inhibition after 48 hrs by MTT assay. It is filed as cell-based. The conditions noted are these: PC-12, 48 h.
In data set [5] the target is Amyloid-beta precursor protein (Homo sapiens) (UniProt P05067). The data set can be described thus: Inhibition of self-induced human amyloid beta (1 to 42) peptide aggregation assessed as reduction in number of amyloid beta aggregates at 20 uM measured after 48 hrs by TEM analysis.
A short description of data set [6]: Toxicity in scopolamine-induced cognition deficit ICR mouse model assessed as effect on total distance travelled at 20 umol/kg, po treated 30 mins prior to scopolamine challenge and measured at 30 mins post-scopolamine challenge on day 15 of probe trial by Morris water maze test. Format: organism-based. The conditions noted are these: in vivo, 0.5 h.
Data set [7] concerns the target Acetylcholinesterase (Torpedo californica) (UniProt P04058). The data set can be described thus: Non-competitive inhibition of pacific electric ray AChE pre-incubated with enzyme for 15 mins followed by acetylthiocholine chloride substrate addition by spectrophotometric method based Lineweaver-Burk plot analysis. As to conditions: Tetronarce californica.
The test system of data set [8] is Mus musculus. Kind of data set: Antialzheimer activity against scopolamine-induced cognition impairment ICR mouse model assessed as increase in path length in target quadrant at 20 umol/kg, po treated 30 mins prior to scopolamine challenge and measured at 30 mins post-scopolamine challenge on day 15 of probe trial by Morris water maze test. Format: functional, organism-based.

Data set [9] relates to Mus musculus. Kind of data set: Antialzheimer activity against scopolamine-induced cognition deficit ICR mouse model assessed as increase in number of platform crossings at 20 umol/kg, po treated 30 mins prior to scopolamine challenge and measured at 30 mins post-scopolamine challenge on day 15 of probe trial by Morris water maze test. Format: functional, organism-based.

The test system of data set [10] is Mus musculus. The data set can be described thus: Antialzheimer activity against scopolamine-induced cognition impairment ICR mouse model assessed as mean escape latency time at 20 umol/kg, po treated 30 mins prior to scopolamine challenge and measured at 30 mins post-scopolamine challenge for 4 days of training trial sessions by Morris water maze test (reference value: 59.8 to 62.2 secs). Format: functional.

The subject of data set [11] is Mus musculus. Kind of data set: Antialzheimer activity against scopolamine-induced cognition impairment ICR mouse model assessed as increase in swimming time in target quadrant at 20 umol/kg, po treated 30 mins prior to scopolamine challenge and measured at 30 mins post-scopolamine challenge on day 15 of probe trial by water maze test. Format: functional, organism-based.

Data set [12] can be described thus: Toxicity in scopolamine-induced cognition deficit ICR mouse model assessed as effect on swimming speed at 20 umol/kg, po treated 30 mins prior to scopolamine challenge and measured at 30 mins post-scopolamine challenge on day 15 of probe trial by Morris water maze test. It is filed as organism-based. As to conditions: in vivo, 0.5 h.

The structures appear in SMILES notation. Active and inactive are the calls of the source. The calls are words filed in the database; no cut-off is given here.

Cholinesterase, sequence (P81908 whole entry): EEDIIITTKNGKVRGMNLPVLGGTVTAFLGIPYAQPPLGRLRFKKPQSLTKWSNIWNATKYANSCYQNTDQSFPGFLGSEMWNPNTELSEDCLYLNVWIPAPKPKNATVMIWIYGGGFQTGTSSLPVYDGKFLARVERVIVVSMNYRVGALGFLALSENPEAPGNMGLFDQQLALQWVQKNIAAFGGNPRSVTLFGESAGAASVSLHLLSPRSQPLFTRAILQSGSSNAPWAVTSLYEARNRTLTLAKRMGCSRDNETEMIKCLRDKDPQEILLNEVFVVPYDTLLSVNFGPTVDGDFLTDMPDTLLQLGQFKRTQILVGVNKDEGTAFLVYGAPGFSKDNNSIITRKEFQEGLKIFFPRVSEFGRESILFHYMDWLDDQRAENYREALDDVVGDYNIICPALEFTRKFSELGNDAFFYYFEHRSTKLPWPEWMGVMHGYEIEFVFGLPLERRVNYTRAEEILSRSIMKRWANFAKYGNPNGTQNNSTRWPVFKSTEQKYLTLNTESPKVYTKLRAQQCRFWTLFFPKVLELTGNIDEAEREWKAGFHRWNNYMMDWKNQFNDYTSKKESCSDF
Acetylcholinesterase (Torpedo californica), sequence (P04058 22-564 limits assumed): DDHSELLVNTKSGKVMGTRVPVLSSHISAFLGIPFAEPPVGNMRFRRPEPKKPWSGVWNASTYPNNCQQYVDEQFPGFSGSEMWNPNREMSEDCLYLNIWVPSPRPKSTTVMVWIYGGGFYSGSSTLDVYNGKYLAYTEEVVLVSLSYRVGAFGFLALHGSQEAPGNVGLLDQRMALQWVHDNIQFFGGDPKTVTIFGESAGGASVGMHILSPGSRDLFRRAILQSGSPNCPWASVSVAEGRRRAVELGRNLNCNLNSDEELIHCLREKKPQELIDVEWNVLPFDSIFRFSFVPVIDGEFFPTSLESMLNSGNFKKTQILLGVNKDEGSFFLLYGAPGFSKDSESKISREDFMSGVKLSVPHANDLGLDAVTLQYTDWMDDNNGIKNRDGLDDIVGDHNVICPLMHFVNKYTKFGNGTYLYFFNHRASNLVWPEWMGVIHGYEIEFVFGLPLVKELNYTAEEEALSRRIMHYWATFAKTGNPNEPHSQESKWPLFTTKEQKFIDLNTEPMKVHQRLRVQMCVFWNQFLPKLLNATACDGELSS

For orientation: IC50 means the point on the concentration scale where inhibition reaches its midpoint. Broadly, the inhibition is the share of the control response that was lost under treatment. For the compound `c1ccc2c(NCCCN3CCCCC3)cc(-c3ccc4c(c3)OCO4)nc2c1`, the Ratio IC50 in data set [1] came to 3.3. Besides, the cytotoxicity at 48 h, 10 µM in data set [2] came to 43.7%; in data set [3], 71.5%. Moreover, the 50% inhibitory concentration (IC50) was determined as 4.78 µM against Acetylcholinesterase, 1.45 µM at Cholinesterase, 9.21 µM in the data set on HepG2 and 7.17 µM in the data set with PC-12. For the same compound, the inhibition in data set [4] is 65.6%.
Turning to `c1ccc2c(N3CCCCC3)cc(-c3ccc4c(c3)OCO4)nc2c1`, the Ratio IC50 in data set [1] was > 4.8. For the same compound, the cytotoxicity at 48 h, 10 µM in [2] and in [3] was < 5% in each case. In addition, the IC50 at Acetylcholinesterase is > 10 µM; against Cholinesterase, 2.09 µM; in the data set with HepG2, > 50 µM; in the data set on PC-12, > 50 µM. Besides, the inhibition in data set [4] was 48.5%.
As to `COc1cc(/C=C/C(=O)CC(=O)/C=C/c2ccc(O)c(OC)c2)ccc1O`, in data set [5], the inhibition entry was “Active”.
Take `c1ccc(-c2cc(NCCCN3CCCCC3)c3ccccc3n2)cc1`: the Ratio IC50 in data set [1] was > 8.4. The figures for the cytotoxicity at 48 h, 10 µM in data set [2] and in data set [3] were 24.1% and 11.6%, respectively. Also, the half-maximal inhibitory concentration (IC50) was > 10 µM against Acetylcholinesterase, 1.19 µM on Cholinesterase, 25.7 µM with HepG2 and 40.5 µM in the data set with PC-12. The compound further returned an inhibition in data set [4] of 60.3%.
`COc1cc(-c2ccc3c(c2)OCO3)nc2ccccc12` [GRAVEOLININE]: the Ratio IC50 in data set [1] was determined as 1.3. Besides, the cytotoxicity at 48 h, 10 µM is 8.76% in [2] and < 5% in data set [3]. For the same compound, the concentration for half-maximal inhibition (IC50) against Acetylcholinesterase is 36.3 µM; on Cholinesterase it was 28.2 µM; in the data set with HepG2, > 50 µM; in the data set on PC-12, > 50 µM. This compound also displayed an inhibition in data set [4] of 26.9%.
On to `c1ccc(-c2cc(N3CCCC3)c3ccccc3n2)cc1`, for which the Ratio IC50 in data set [1] worked out at 8.6. Further, the cytotoxicity at 48 h, 10 µM in data set [2] worked out at 12.6%; in [3], 24.2%. In addition, the IC50 on Acetylcholinesterase was found to be 3.71 µM; at Cholinesterase, 0.43 µM; with HepG2, 30.9 µM; in the data set on PC-12, 24.7 µM. Besides, the inhibition in [4] was found to be 57.7%.
As for `c1ccc(-c2cc(NCCCN3CCOCC3)c3ccccc3n2)cc1`, the Ratio IC50 in data set [1] is > 2.3. Further, the cytotoxicity at 48 h, 10 µM in [2] came out at 12.7%; in data set [3], 12.6%. The IC50 is > 10 µM against Acetylcholinesterase, 4.44 µM against Cholinesterase, 30.1 µM in the data set on HepG2 and 35.2 µM in the data set on PC-12. In data set [4], the inhibition was determined as 55.5%.
Regarding `c1ccc2c(N3CCCC3)cc(-c3ccc4c(c3)OCO4)nc2c1`, the Activity result in data set [6] and in data set [12] was “Non-Toxic” in each case. Also, the Ratio IC50 in data set [1] turned out to be 4.5. For the same compound, the cytotoxicity at 48 h, 10 µM in data set [2] and in data set [3] was < 5% throughout. Further, the inhibition result in data set [7] and in [5] was “Active” throughout. For the same compound, the outcome in the data set with Mus musculus [8], in the data set on Mus musculus [9] and in the data set on Mus musculus [11] was Active. The Time in the data set on Mus musculus [10] is 48.1 s. In addition, the half-inhibitory concentration (IC50) is 0.72 µM against Acetylcholinesterase, 0.16 µM at Cholinesterase, > 50 µM in the data set with HepG2 and > 50 µM with PC-12. Besides, in data set [4], the inhibition turned out to be 62.5%.
For the compound `CCCCNc1cc(-c2ccc3c(c2)OCO3)nc2ccccc12`, in data set [1], the Ratio IC50 came to 0.61. Besides, the values for the cytotoxicity at 48 h, 10 µM in data set [2] and in data set [3] were 15.4% and 11.2%, respectively. The 50% inhibitory concentration (IC50) on Acetylcholinesterase was 4.8 µM; against Cholinesterase, 7.85 µM; with HepG2, > 50 µM; with PC-12 it was 46.2 µM. The compound also gave an inhibition in data set [4] of 30.6%.
Turning to `OCCCCCCNc1cc(-c2ccc3c(c2)OCO3)nc2ccccc12`, the Ratio IC50 in data set [1] was 0.67. Besides, the cytotoxicity at 48 h, 10 µM in data set [2] and in data set [3] was < 5% in each case. For the same compound, the IC50 against Acetylcholinesterase is 4.32 µM; against Cholinesterase it was 6.49 µM; in the data set with HepG2, > 50 µM; in the data set with PC-12 it was > 50 µM. The compound further had an inhibition in [4] of 39.4%.
Consider `OCCCNc1cc(-c2ccccc2)nc2ccccc12`, for which the cytotoxicity at 48 h, 10 µM in [2] and in data set [3] was < 5% throughout. In addition, the half-maximal inhibitory concentration (IC50) is > 10 µM against Acetylcholinesterase, > 10 µM on Cholinesterase, > 50 µM with HepG2 and > 50 µM with PC-12. The compound further registered an inhibition in data set [4] of 36.8%.
On to `OCCCNc1cc(-c2ccc3c(c2)OCO3)nc2ccccc12`, for which the Ratio IC50 in data set [1] is < 0.42. For the same compound, the values for the cytotoxicity at 48 h, 10 µM in data set [2] and in data set [3] were < 5% and 8.38%, respectively. For the same compound, the IC50 on Acetylcholinesterase was 4.23 µM; against Cholinesterase it was > 10 µM; in the data set on HepG2 it was > 50 µM; in the data set with PC-12, > 50 µM. This compound had an inhibition in data set [4] of 36.6%.
Take `OCCCCCCNc1cc(-c2ccccc2)nc2ccccc12`: the Ratio IC50 in [1] stood at 2.1. The cytotoxicity at 48 h, 10 µM in data set [2] was 12%; in [3], < 5%. Also, the concentration for half-maximal inhibition (IC50) on Acetylcholinesterase is 6.22 µM; on Cholinesterase it was 2.96 µM; in the data set on HepG2, 44.2 µM; in the data set on PC-12, > 50 µM. In [4], this compound yielded an inhibition of 29.2%.
In the case of `c1ccc2c(NCCCN3CCOCC3)cc(-c3ccc4c(c3)OCO4)nc2c1`, the Ratio IC50 in data set [1] stood at 0.4. Besides, the cytotoxicity at 48 h, 10 µM in data set [2] and in data set [3] was < 5% in each case. Besides, the 50% inhibitory concentration (IC50) was 3.22 µM against Acetylcholinesterase, 8.15 µM against Cholinesterase, 17.7 µM in the data set with HepG2 and > 50 µM in the data set with PC-12. In data set [4], the inhibition was 61.6%.
With `OCCCCNc1cc(-c2ccccc2)nc2ccccc12`, the Ratio IC50 in data set [1] worked out at 2.3. Further, the cytotoxicity at 48 h, 10 µM in data set [2] and in data set [3] was < 5% throughout. Moreover, the IC50 is 9.85 µM against Acetylcholinesterase, 4.31 µM on Cholinesterase, > 50 µM in the data set with HepG2 and > 50 µM in the data set on PC-12. Further, in data set [4], the inhibition is 40.7%.
Turning to `OCCCCNc1cc(-c2ccc3c(c2)OCO3)nc2ccccc12`, the Ratio IC50 in [1] was 0.44. Further, the cytotoxicity at 48 h, 10 µM is < 5% in [2] and 14.7% in data set [3]. The half-inhibitory concentration (IC50) is 4.26 µM on Acetylcholinesterase, 9.78 µM on Cholinesterase, > 50 µM in the data set on HepG2 and 34.3 µM in the data set on PC-12. Further, in data set [4], the inhibition stood at 44.1%.
